Data: paper PMC11259170, “Small-molecule probe for IBD risk variant GPR65 I231L alters cytokine signaling networks through positive allosteric modulation” (Science Advances, 2024)

Legend:
Type in all cases: cell-based
[1] = molecular target: T1, hGPR65 (Homo sapiens, UniProt Q8IYL9); test: cAMP detection (Lance Ultra), GPR65 KO HeLa reconstituted with hGPR65; 21K screen dose confirmation; settings: HeLa GPR65 KO + hGPR65, pH 7.1, 30 min, normalized to DMSO and 100 μM forskolin; read-out: WT EC50
T1 construct: expressed in transfected cells; host or cells: HeLa (ATCC CCL-2), lentiviral transduction, pLX317

[2] = molecular target: T2, mGPR65 (Mus musculus, UniProt Q61038); test: cAMP detection, GPR65 KO HeLa reconstituted with mGPR65; settings: 0 to 50 μM, pH 7.2
T2 construct: expressed in transfected cells; host or cells: HeLa (ATCC CCL-2), lentiviral transduction, pLX317
Experimental: The Lance Ultra cAMP Kit (PerkinElmer, TRF0264) was used for cAMP detection, and included the following reagents: ULight anti-cAMP antibody, Eu-cAMP tracer, 7.5% BSA Stabilizer solution, and cAMP detection buffer. Stimulation buffer was prepared as described by the kit manufacturer as follows: Hanks buffered saline solution (HBSS, Life Technologies, 14025-126) containing 0.5 mM IBMX (3-isobutyl-1-methylxanthine, Sigma-Aldrich, I7018) and buffered with 1 M Hepes (15630-080). […] HeLa cells were lifted using Versene and then suspended at 2.5 × 10^5 cells/ml in stimulation buffer. Cells were then plated at 20 μl per well (5000 cells per well) in white, opaque OptiPlate 384-well MicroPlates (PerkinElmer, 6007299) using a Thermo Fisher Scientific Combi liquid dispenser. […] Eu-cAMP tracer and Förster resonance energy transfer (FRET) emissions were then read using a PerkinElmer EnVision Multimode plate reader (ENVISION21040010), exciting each well at 320 nm [UV2 (TRF) 320 filter] and reading emissions at 615 nm (Europium 615 filter) and 665 nm (APC665 filter). […]

[3] = molecular target: T3, hGPR65 I231L-SmBiT (Homo sapiens, UniProt Q8IYL9, I231L); test: Nano-BiT target engagement, LgBiT-mGs recruitment to hGPR65 I231L-SmBiT; settings: 10 μM
T3 construct: expressed in transfected cells; host or cells: Expi293F (Gibco), transient transfection
Experimental: Target engagement was measured in Expi293F (Gibco, 100044202) cells using the Nano-Glo Live Cell Assay System (Promega, N2011). Nano-BiT plasmids were cloned from GPR65-, GPR4-, and GPR68-Tango plasmids. GPR65-Tango (Addgene plasmid # 66370; http://n2t.net/addgene:66370; RRID:Addgene_66370), GPR4-Tango (Addgene plasmid # 66358; http://n2t.net/addgene:66358; RRID:Addgene_66358), and GPR68-Tango (Addgene plasmid # 66371; http://n2t.net/addgene:66371; RRID:Addgene_66371) were gifts from Bryan Roth. Expi293F cells were transfected 1 day before kinetics with 500 ng of each plasmid using ExpiFectamine 293 Transfection Kit (Gibco, A14525). After 24 hours, cells were collected, washed, and resuspended in room temperature 0.1% PBS-BSA, adjusted to pH 7.4 using 1 M NaOH. Cells were transferred to white opaque 96-well microplates (100 μl per well, PerkinElmer, 6005290), followed by addition of the Nano-Glo Live Cell Reagent (25 μl per well). Baseline luminescence was measured for 10 cycles (1 cycle = 90 s) before adding compounds. All luminescence measurements were made on BMG Labtech PHERAstar FSX. Data analysis was performed using GraphPad Prism.

T3 sequence (Q8IYL9 whole entry I231L): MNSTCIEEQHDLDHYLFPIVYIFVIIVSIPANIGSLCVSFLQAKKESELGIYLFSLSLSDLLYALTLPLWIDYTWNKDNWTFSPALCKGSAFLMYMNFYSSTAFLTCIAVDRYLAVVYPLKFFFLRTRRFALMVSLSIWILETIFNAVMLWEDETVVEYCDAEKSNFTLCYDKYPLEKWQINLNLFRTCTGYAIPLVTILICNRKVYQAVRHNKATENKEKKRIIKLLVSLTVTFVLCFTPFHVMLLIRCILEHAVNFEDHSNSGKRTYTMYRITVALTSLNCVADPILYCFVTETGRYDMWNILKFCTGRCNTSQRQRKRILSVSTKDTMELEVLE
T1 sequence (Q8IYL9 whole entry): as the sequence (Q8IYL9 whole entry I231L) above, with L231I counted along it
T2 sequence (Q61038 whole entry): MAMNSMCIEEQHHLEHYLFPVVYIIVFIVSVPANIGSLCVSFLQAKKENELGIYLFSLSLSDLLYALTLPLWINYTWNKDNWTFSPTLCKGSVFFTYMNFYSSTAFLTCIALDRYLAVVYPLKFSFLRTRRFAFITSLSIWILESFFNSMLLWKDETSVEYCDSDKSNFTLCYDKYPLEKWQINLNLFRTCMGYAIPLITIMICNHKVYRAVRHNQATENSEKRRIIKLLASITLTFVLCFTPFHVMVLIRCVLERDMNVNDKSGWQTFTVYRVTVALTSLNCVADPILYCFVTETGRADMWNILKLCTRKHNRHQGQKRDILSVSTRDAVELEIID

Compound	EC50 [1] [µM]	cAMP response, BTB09089 compared with BRD2813 [2]	G protein recruitment in cells expressing hGPR65 I231L [3]
CN1N=C(SCc2ccc(Cl)cc2Cl)Sc2c1cnn(C)c2=O [BTB09089, reference compound]	6	more effective	
Cc1ccc(NC(=O)c2cnn3c(O)cc(-c4ccc(COC(C)C)cc4)nc23)nc1 [BRD5075, O=C(NC1=NC=C(C)C=C1)C2=C3N(N=C2)C(O)=CC(C4=CC=C(COC(C)C)C=C4)=N3]			able to recruit G protein
